Among the data in patent US9896445B2, “Heterocyclic inhibitors of ERK1 and ERK2 and their use in the treatment of cancer” (Asana Biosciences, LLC, priority 2015, dated 2018) are IC50 and melting point values, retold here.

The target of data set [1] is T1, ERK1 (Homo sapiens, UniProt P27361).
T1 construct: purchased Jubilant Biosys
Kind of data set: ERK1 HTRF (biochemical) assay. As to the method:
ERK1 and ERK2 HTRF (Biochemical) Assays
These assays employed a homogeneous time resolved fluorescence (HTRF) technique. […] The plate was incubated at room temperature for 60 min with shaking. […] The IC50 values (half maximal inhibitory concentration values) were subsequently determined using a sigmoidal dose-response curve (variable slope) in GraphPad Prism® 5 software.

Data set [2] addresses T2, ERK2 (Homo sapiens, UniProt P28482).
T2 construct: purchased Jubilant Biosys
Kind of data set: ERK2 HTRF (biochemical) assay. The gist of the method:
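Readout was time-resolved FRET between europium anti-phospho-MBP and streptavidin-APC after a 60-min room-temperature kinase step. That step used ERK2 (25 nM in enzyme mix), biotinylated MBP peptide (1 uM) and ATP (24 uM) from the substrate mix, in pH 7.5 Tris buffer.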
On the technique in general: Time-resolved FRET reads energy transfer from a long-lived donor to a nearby acceptor.

Bounds are passed on as bounds.

T2 sequence (P28482 whole entry): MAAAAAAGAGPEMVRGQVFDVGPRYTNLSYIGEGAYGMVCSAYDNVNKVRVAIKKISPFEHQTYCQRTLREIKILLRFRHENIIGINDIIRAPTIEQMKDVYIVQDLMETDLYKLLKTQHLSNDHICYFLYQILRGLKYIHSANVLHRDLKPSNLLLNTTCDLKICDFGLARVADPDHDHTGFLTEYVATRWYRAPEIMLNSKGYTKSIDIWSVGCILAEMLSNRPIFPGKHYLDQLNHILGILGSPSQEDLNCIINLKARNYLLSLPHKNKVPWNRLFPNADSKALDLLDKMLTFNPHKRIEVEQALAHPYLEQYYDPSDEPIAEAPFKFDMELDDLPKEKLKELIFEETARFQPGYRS
T1 sequence (P27361 whole entry): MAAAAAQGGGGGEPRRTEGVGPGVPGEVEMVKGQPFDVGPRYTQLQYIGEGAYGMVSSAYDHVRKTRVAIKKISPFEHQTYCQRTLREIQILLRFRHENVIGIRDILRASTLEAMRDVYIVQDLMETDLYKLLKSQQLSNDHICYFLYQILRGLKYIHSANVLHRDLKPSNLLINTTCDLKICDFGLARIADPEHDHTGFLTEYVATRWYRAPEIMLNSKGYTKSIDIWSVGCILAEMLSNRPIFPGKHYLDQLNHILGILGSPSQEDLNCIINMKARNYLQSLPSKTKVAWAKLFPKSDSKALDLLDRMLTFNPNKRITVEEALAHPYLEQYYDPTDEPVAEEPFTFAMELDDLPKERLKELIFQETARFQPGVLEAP

Take `Cc1cnc(Nc2ccc3c(c2)OCO3)nc1-n1cc(NC(=O)N[C@H](CO)c2ccccc2)cn1` [Compound 55, (S)-1-(1-(2-(benzo[d][1,3]dioxol-5-ylamino)-5-methylpyrimidin-4-yl)-1H-pyrazol-4-yl)-3-(2-hydroxy-1-phenylethyl)urea]: the melting point was determined as 208.3 °C. The IC50 in data set [1] (HTRF) was 50 to 100 nM. Further, in data set [2] (HTRF), the IC50 was in the range of 50 to 100 nM.

Compound `O=C(NC(CO)c1cccc(Cl)c1)c1cn(-c2ccnc(Nc3ccccc3)c2)cn1` (stereo not shown) [Compound 77, N-(1-(3-chlorophenyl)-2-hydroxyethyl)-1-(2-(phenylamino)pyridin-4-yl)-1H-imidazole-4-carboxamide] showed a melting point of 130 °C. Further, the IC50 in data set [1] (HTRF) is under 50 nM. The same compound returned an IC50 in data set [2] (HTRF) of at most 50 nM.

With `Cc1cnc(Nc2ccc(F)cc2)cc1-n1ccc(C(=O)NC(CN)c2cccc(Cl)c2)c1` (stereo not shown) [Compound 159, N-(2-Amino-1-(3-chlorophenyl)ethyl)-1-(2-((4-fluorophenyl)amino)-5-methylpyridin-4-yl)-1H-pyrrole-3-carboxamide], the melting point worked out at 118.1 °C. The compound further came in with an IC50 in data set [1] (HTRF) of 50 to 100 nM. In data set [2] (HTRF), this compound registered an IC50 of at most 50 nM.

Compound `Cc1cnc(Nc2ccc(F)cc2)cc1-n1cnc(C(=O)NC(CN)c2ccccc2)c1` (stereo not shown) [Compound 191, N-(2-amino-1-phenylethyl)-1-(2-((4-fluorophenyl)amino)-5-methylpyridin-4-yl)-1H-imidazole-4-carboxamide] returned a melting point of 154.7 °C. The same compound gave an IC50 in data set [1] (HTRF) of under 50 nM. The same compound registered an IC50 in data set [2] (HTRF) of 50 to 100 nM.

The compound `Cc1cnc(N[C@H]2CCOC2)nc1-n1cnc(C(=O)N[C@H](CO)c2cccc(Cl)c2)c1` [Compound 192, N-((S)-1-(3-Chlorophenyl)-2-hydroxyethyl)-1-(5-methyl-2-(((S)-tetra-hydrofuran-3-yl)amino)pyrimidin-4-yl)-1H-imidazole-4-carboxamide] gave a melting point of 117 °C. Also, in data set [1] (HTRF), the IC50 is under 50 nM. For the same compound, the IC50 in data set [2] (HTRF) was at most 50 nM.

On to `Cc1cnc(NC2CCOCC2)nc1-n1cnc(C(=O)NCc2ccc(Cl)c(CO)c2)c1` [Example 330, N-(4-chloro-3-(hydroxymethyl)-benzyl)-1-(5-methyl-2-((tetrahydro-2H-pyran-4-yl)amino)-pyrimidin-4-yl)-1H-imidazole-4-carboxamide], for which the IC50 in data set [1] (HTRF biochemical assay) is under 50 nM; in data set [2] (HTRF biochemical assay), at most 50 nM.

With `Cc1cnc(N[C@H]2CCOC2)nc1-n1cnc(C(=O)NCc2cccc(Cl)c2C)c1` [Example 331, (S)-N-(3-chloro-2-methylbenzyl)-1-(5-methyl-2-((tetrahydrofuran-3-yl)amino)pyrimidin-4-yl)-1H-imidazole-4-carboxamide], the IC50 in data set [1] (HTRF biochemical assay) is under 50 nM; in data set [2] (HTRF biochemical assay), at most 50 nM.

For the compound `Cc1cnc(Nc2ccc3c(c2)OC(F)(F)O3)nc1-n1cnc(C(=O)NCc2cccc(Cl)c2CO)c1` [Example 332, N-(3-chloro-2-(hydroxymethyl)-benzyl)-1-(2-((2,2-difluorobenzo[d] [1,3]dioxol-5-yl)amino)-5-methylpyrimidin-4-yl)-1H-imidazole-4-carboxamide], the IC50 in data set [1] (HTRF biochemical assay) is under 50 nM; in data set [2] (HTRF biochemical assay), at most 50 nM.

On to `Cc1cnc(NC2CCOCC2)nc1-n1cnc(C(=O)N[C@H](CNCCO)c2cccc(Cl)c2)c1` [Example 333, (S)-N-(1-(3-chlorophenyl)-2-((2-hydroxyethyl)amino)ethyl)-1-(5-methyl-2-((tetrahydro-2H-pyran-4-yl)amino)-pyrimidin-4-yl)-1H-imidazole-4-carboxamide], for which the IC50 in data set [1] (HTRF biochemical assay) was under 50 nM; in data set [2] (HTRF biochemical assay), at most 50 nM.

Regarding `Cc1cnc(NC2CCOCC2)nc1-n1cnc(C(=O)NCc2cccc(Cl)c2CCO)c1` [Example 334, N-(3-chloro-2-hydroxyethylbenzyl)-1-(5-methyl-2-((tetrahydro-2H-pyran-4-yl)amino)-pyrimidin-4-yl)-1H-imidazole-4-carboxamide], the values for the IC50 in data set [1] (HTRF biochemical assay) and in data set [2] (HTRF biochemical assay) were under 50 nM and at most 50 nM, respectively.

As to `Cc1cnc(NC2CCOCC2)nc1-n1cnc(C(=O)NCc2cccc(CO)c2Cl)c1` [Example 335, N-(2-chloro-3-(hydroxymethyl)-benzyl)-1-(5-methyl-2-((tetrahydro-2H-pyran-4-yl)amino)-pyrimidin-4-yl)-1H-imidazole-4-carboxamide], the IC50 was under 50 nM in data set [1] (HTRF biochemical assay) and at most 50 nM in data set [2] (HTRF biochemical assay).

For the compound `CC[C@H](CO)Nc1ncc(C)c(-n2cnc(C(=O)NCc3cccc(Cl)c3CO)c2)n1` [Example 336, (R)-N-(3-chloro-2-(hydroxymethyl)-benzyl)-1-(2-((1-hydroxybutan-2-yl)amino)-5-methylpyrimidin-4-yl)-1H-imidazole-4-carboxamide], the IC50 is under 50 nM in data set [1] (HTRF biochemical assay) and at most 50 nM in data set [2] (HTRF biochemical assay).

Turning to `Cc1cnc(NC2CCOCC2)nc1-n1cnc(C(=O)N[C@H](CNCC(C)(C)C)c2cccc(Cl)c2)c1` [Example 337, (S)-N-(1-(3-chlorophenyl)-2-(neopentylamino)-ethyl)-1-(5-methyl-2-((tetrahydro-2H-pyran-4-yl)amino)-pyrimidin-4-yl)-1H-imidazole-4-carboxamide], the IC50 in data set [1] (HTRF biochemical assay) is under 50 nM; in data set [2] (HTRF biochemical assay) it was at most 50 nM.

As for `Cc1cnc(N[C@H]2CCOC2)nc1-n1cnc(C(=O)NCc2cccc(CO)c2Cl)c1` [Example 338, (S)-N-(2-chloro-3-(hydroxymethyl)-benzyl)-1-(5-methyl-2-((tetrahydrofuran-3-yl)amino)-pyrimidin-4-yl)-1H-imidazole-4-carboxamide], the IC50 in data set [1] (HTRF biochemical assay) was under 50 nM; in data set [2] (HTRF biochemical assay) it was at most 50 nM.

`Cc1cnc(NC2CCOCC2)nc1-n1cnc(C(=O)N[C@H](CNCC2CC2)c2cccc(Cl)c2)c1` [Example 339, 1-[5-Methyl-2-(tetrahydro-pyran-4-ylamino)-pyrimidin-4-yl]-1H-imidazole-4-carboxylic acid [(S)-1-(3-chloro-phenyl)-2-(cyclopropylmethyl-amino)-ethyl]-amide]: the IC50 in data set [1] (HTRF biochemical assay) was under 50 nM; in data set [2] (HTRF biochemical assay), at most 50 nM.

With `CC(=O)OCc1c(Cl)cccc1CNC(=O)c1cn(-c2nc(NC3CCOCC3)ncc2C)cn1` [Example 340, 2-chloro-6-((1-(5-methyl-2-((tetrahydro-2H-pyran-4-yl)amino)-pyrimidin-4-yl)-1H-imidazole-4-carboxamido)-methyl)benzyl acetate], the IC50 was under 50 nM in data set [1] (HTRF biochemical assay) and at most 50 nM in data set [2] (HTRF biochemical assay).

Turning to `Cc1cnc(NC2CCOCC2)nc1-n1cnc(C(=O)NC(C)(C)c2cccc(Cl)c2CO)c1` [Example 341, N-(2-(3-chloro-2-(hydroxymethyl)-phenyl)propan-2-yl)-1-(5-methyl-2-((tetrahydro-2H-pyran-4-yl)amino)-pyrimidin-4-yl)-1H-imidazole-4-carboxamide], the IC50 in data set [1] (HTRF biochemical assay) was under 50 nM; in data set [2] (HTRF biochemical assay) it was at most 50 nM.

As for `CC(=O)OCc1c(Cl)cccc1CNC(=O)c1cn(-c2nc(N[C@H]3CCOC3)ncc2C)cn1` [Example 342, (S)-2-chloro-6-((1-(5-methyl-2-((tetrahydrofuran-3-yl)amino)pyrimidin-4-yl)-1H-imidazole-4-carboxamido)-methyl)benzyl acetate], the IC50 in data set [1] (HTRF biochemical assay) is under 50 nM; in data set [2] (HTRF biochemical assay), at most 50 nM.

Take `Cc1cnc(NC2CCOCC2)nc1-n1cnc(C(=O)NCc2ccc(Cl)cc2CO)c1` [Example 343, N-(4-chloro-2-hydroxymethyl-benzyl)-1-(5-methyl-2-((tetrahydro-2H-pyran-4-yl)amino)-pyrimidin-4-yl)-1H-imidazole-4-carboxamide]: the IC50 was under 50 nM in data set [1] (HTRF biochemical assay) and at most 50 nM in data set [2] (HTRF biochemical assay).

Take `Cc1cnc(N[C@@H]2CCOC2)nc1-n1cnc(C(=O)NCc2cccc(Cl)c2CO)c1` [Example 344, (R)-N-(3-chloro-2-(hydroxymethyl)-benzyl)-1-(5-methyl-2-((tetrahydrofuran-3-yl)amino)-pyrimidin-4-yl)-1H-imidazole-4-carboxamide]: the concentration for half-maximal inhibition (IC50) in data set [1] (HTRF biochemical assay) was under 50 nM; in data set [2] (HTRF biochemical assay) it was at most 50 nM.

On to `CNCCNC[C@@H](NC(=O)c1cn(-c2nc(NC3CCOCC3)ncc2C)cn1)c1cccc(Cl)c1` [Example 345, ((S)-N-(1-(3-chlorophenyl)-2-((2-(methylamino)ethyl)amino)ethyl)-1-(5-methyl-2-((tetrahydro-2H-pyran-4-yl)amino)-pyrimidin-4-yl)-1H-imidazole-4-carboxamide2,2,2-trifluoroacetate], for which the results for the half-inhibitory concentration (IC50) in data set [1] (HTRF biochemical assay) and in data set [2] (HTRF biochemical assay) were under 50 nM and at most 50 nM, respectively.

With `CCC(=O)OCc1c(Cl)cccc1CNC(=O)c1cn(-c2nc(NC3CCOCC3)ncc2C)cn1` [Example 348, 2-chloro-6-((1-(5-methyl-2-((tetrahydro-2H-pyran-4-yl)amino)-pyrimidin-4-yl)-1H-imidazole-4-carboxamido)-methyl)benzyl-propionate], the values for the concentration for half-maximal inhibition (IC50) in data set [1] (HTRF biochemical assay) and in data set [2] (HTRF biochemical assay) were under 50 nM and at most 50 nM, respectively.

Broadly, the IC50 is the concentration that inhibits the measured activity by half. Read a low IC50 as higher potency. As usually defined, the melting point is the temperature of the solid-liquid transition.
